Source: patent US8871753B2, “Macrocyclic compounds and their use as kinase inhibitors” (Incyte Corporation, priority 2008, dated 2014)
Where a name gives a salt, the structure may show the parent alone. Read-outs that look alike come from different tables or passages of the source.

Experiments:
Type in all cases: biochemical
[1] = biological target: T1, human JAK2 (a.a. 828-1132) (Homo sapiens, UniProt O60674); assay: In vitro JAK kinase assay (HTRF, phosphorylation of a biotinylated peptide), JAK2
T1 construct: JAK2 (a.a. 828-1132); His tag (N); made in house; host or cells: insect cells (baculovirus)
T1 sequence (O60674 828-1132): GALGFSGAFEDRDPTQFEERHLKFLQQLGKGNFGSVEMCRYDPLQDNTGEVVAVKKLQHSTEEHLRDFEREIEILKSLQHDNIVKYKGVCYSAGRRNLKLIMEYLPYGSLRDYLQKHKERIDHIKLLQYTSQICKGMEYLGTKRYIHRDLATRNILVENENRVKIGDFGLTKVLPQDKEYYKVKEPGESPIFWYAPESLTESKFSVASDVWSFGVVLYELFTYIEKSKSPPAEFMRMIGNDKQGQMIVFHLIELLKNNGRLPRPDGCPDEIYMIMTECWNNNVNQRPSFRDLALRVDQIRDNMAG
In short: (§1)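 Phosphorylation of a biotinylated peptide by the JAK kinase domain, detected by HTRF with Eu-Py20 and SA-APC. ATP was 90 μM for JAK1, 30 μM for JAK2 and 3 μM for JAK3. Reactions ran 1 h at room temperature and were stopped with EDTA, followed by 40 min antibody binding.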

[2] = biological target: T2, Recombinant Human Anaplastic Lymphoma Kinase (Homo sapiens, UniProt Q9UM73); assay: ALK HTRF kinase assay
T2 construct: purchased Invitrogen, Carlsbad, Calif
T2 sequence (Q9UM73 19-1620): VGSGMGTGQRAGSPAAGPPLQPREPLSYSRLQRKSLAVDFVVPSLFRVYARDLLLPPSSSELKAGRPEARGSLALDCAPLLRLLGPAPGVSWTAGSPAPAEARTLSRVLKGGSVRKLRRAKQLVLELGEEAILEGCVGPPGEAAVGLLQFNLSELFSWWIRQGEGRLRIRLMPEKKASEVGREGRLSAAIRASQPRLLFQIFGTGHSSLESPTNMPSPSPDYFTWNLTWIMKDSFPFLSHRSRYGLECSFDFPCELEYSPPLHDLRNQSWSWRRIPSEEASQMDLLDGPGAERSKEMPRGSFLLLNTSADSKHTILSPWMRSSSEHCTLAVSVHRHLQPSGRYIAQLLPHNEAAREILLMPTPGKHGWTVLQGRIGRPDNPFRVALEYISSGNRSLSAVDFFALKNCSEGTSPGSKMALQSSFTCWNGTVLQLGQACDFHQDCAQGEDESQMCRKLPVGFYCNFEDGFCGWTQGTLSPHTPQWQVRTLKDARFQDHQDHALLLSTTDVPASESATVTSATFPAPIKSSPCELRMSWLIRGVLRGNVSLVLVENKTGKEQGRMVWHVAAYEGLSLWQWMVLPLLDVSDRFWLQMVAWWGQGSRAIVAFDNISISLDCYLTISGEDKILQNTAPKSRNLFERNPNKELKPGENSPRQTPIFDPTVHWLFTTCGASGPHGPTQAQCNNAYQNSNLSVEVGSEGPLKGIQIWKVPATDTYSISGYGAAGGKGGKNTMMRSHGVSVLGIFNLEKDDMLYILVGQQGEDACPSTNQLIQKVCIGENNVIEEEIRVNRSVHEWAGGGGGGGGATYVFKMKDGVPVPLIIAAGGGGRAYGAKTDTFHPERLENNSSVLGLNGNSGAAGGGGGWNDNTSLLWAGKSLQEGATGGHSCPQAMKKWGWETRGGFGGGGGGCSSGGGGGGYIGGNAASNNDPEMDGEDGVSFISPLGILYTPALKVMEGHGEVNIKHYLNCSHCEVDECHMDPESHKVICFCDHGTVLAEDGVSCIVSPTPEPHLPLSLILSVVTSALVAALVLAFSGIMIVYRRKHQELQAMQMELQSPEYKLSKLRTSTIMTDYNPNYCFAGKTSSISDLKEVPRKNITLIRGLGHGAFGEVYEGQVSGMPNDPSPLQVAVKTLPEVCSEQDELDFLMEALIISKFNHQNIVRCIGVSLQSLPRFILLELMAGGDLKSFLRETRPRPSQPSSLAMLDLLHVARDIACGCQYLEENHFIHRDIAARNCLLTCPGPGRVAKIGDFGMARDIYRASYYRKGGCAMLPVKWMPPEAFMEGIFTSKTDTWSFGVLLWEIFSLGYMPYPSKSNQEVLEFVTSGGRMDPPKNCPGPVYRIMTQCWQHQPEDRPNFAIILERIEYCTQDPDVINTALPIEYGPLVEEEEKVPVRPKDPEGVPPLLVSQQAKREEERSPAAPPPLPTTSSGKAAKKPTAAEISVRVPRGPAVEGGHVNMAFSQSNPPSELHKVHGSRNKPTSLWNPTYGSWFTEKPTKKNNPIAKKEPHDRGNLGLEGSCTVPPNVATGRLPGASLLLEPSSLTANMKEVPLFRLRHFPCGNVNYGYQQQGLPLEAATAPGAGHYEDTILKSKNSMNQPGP
In short: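 Kinase activity of the recombinant human protein is measured on a biotinylated peptide, with a Eu-W1024 anti-phosphotyrosine antibody and streptavidin-allophycocyanin generating the homogeneous time-resolved fluorescence signal. Inhibition curves are fitted to yield IC50.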

[3] = biological target: T3, human JAK1 (a.a. 837-1142) (Homo sapiens, UniProt P23458); assay: In vitro JAK kinase assay (HTRF, phosphorylation of a biotinylated peptide), JAK1; conditions: read-out: JAK1 IC50
T3 construct: human JAK1 (a.a. 837-1142); His tag (N); made in house; host or cells: insect cells (baculovirus)
T3 sequence (P23458 849-1154): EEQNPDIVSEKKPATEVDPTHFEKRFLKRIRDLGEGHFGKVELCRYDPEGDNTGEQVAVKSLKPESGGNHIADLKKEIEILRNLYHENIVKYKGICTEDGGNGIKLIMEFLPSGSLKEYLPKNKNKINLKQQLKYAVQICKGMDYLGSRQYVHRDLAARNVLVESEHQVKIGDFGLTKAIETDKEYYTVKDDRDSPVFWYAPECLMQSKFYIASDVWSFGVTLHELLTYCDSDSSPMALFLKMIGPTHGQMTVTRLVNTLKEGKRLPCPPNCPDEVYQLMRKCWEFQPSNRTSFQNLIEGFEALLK
In short: as §1

[4] = biological target: T4, human JAK3 (a.a. 781-1124) (Homo sapiens, UniProt P52333); assay: In vitro JAK kinase assay (HTRF, phosphorylation of a biotinylated peptide), JAK3
T4 construct: JAK3 (a.a. 781-1124); His tag (N); made in house; host or cells: insect cells (baculovirus)
T4 sequence (P52333 781-1124): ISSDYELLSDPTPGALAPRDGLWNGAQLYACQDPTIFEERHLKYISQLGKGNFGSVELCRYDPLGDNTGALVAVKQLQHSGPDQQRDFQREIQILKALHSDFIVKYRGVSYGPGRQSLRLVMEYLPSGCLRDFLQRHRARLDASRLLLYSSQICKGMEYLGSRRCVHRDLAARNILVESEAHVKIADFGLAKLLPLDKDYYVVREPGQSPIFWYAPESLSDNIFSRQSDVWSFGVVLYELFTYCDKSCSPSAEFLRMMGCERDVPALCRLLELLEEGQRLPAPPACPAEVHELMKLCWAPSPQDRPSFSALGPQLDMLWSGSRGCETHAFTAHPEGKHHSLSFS
In short: as §1

TYK2 = TYK2 (Homo sapiens, UniProt P29597); assay: TYK2 kinase inhibition (Table A1)
TYK2, sequence (P29597 whole entry): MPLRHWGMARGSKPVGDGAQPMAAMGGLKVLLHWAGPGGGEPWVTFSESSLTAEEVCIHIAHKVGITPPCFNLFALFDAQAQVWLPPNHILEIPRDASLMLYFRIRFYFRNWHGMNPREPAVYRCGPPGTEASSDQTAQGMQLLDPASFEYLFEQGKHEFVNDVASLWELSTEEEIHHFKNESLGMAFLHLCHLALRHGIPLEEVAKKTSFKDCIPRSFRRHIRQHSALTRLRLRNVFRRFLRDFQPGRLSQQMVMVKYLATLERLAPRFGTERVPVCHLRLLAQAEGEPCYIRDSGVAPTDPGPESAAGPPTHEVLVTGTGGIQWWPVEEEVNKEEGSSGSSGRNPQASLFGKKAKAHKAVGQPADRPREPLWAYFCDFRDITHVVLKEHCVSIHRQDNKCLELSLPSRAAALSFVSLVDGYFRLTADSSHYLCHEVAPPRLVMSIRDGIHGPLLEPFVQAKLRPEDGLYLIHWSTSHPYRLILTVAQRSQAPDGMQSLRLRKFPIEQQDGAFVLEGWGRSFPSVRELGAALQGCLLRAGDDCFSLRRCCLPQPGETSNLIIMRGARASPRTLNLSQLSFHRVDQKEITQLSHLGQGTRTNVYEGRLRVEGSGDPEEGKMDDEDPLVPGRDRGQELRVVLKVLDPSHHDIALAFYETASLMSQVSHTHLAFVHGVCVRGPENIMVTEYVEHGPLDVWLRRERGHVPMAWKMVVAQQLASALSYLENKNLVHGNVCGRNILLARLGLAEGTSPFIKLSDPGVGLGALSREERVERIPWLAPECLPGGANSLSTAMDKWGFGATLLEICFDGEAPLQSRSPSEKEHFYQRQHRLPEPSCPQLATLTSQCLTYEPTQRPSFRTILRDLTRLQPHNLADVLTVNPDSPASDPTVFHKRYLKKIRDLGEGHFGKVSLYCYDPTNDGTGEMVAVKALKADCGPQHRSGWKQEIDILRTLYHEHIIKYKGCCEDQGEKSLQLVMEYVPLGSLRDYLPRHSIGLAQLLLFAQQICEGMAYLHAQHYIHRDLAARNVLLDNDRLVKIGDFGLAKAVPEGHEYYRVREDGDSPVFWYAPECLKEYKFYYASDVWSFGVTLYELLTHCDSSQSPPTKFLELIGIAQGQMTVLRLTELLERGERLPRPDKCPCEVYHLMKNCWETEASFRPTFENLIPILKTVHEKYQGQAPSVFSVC

[5] = Table B1, cells without percent sign
[6] = compound at a concentration of 500 nM or 1 mM (not specified), cells shown as percentage
[7] = method AA1 (30 μM ATP) or AA2 (1000 μM ATP), not stated per value
[8] = compound at 500 nM or 1 mM, 90 μM ATP
[9] = method AA1 (90 μM ATP) or AA2 (1000 μM ATP), not stated per value
[10] = method AA1 (3 μM ATP) or AA2 (1000 μM ATP), not stated per value

SMILES	IC50 ([1]; Table B1) [nM]	IC50 ([3]; Table B1) [nM]	IC50 ([4]; Table B1) [nM]	IC50 (TYK2; Table B1) [nM]	ALK % of inhibition at a concentration of 500 nM or 1 mM [2, 6] [%]	also measured
O=C(Nc1ccc2[nH]ccc2c1)c1cc2cc(c1)OCCSc1cccc(c1)Nc1nc(ncc1Cl)N2 [Example D56, 6-Chloro-N-1H-indol-5-yl-17-oxa-14-thia-2,4,8,24-tetraazatetracyclo[16.3.1.1(3,7).1(9,13)]tetracosa-1(22),3(24),4,6,9(23),10,12,18,20-nonaene-20-carboxamide trifluoroacetate]	–	–	–	–	–	IC50 ([1]; Table D1): 4.8 nM; IC50 ([2]; Table D1, 90 μM ATP): 1940 nM; IC50 ([3]; Table D1): 10 nM; IC50 ([4]; Table D1): 42 nM; IC50 (TYK2; Table D1): 14 nM
CCCC(=O)Nc1ccc2cc1CCc1cccc(c1)Nc1ncc(Cl)c(n1)N2 [Example B56, N-[6-Chloro-2,4,8,22-tetraazatetracyclo[14.3.1.1(3,7).1(9,13)]docosa-1(20), 3(22),4,6,9(21),10,12,16,18-nonaen-12-yl]butanamide trifluoroacetate]	2	5.9	1.5	14	–	IC50 [2, 5]: 720 nM
CC(C)S(=O)(=O)N1CCC(CC(=O)Nc2ccc3cc2CCc2cccc(c2)Nc2ncc(Cl)c(n2)N3)CC1 [Example A82, N-[6-Chloro-2,4,8,22-tetraazatetracyclo[14.3.1.1(3,7).1(9,13)]docosa-1(20),3(22),4,6,9(21),10,12,16,18-nonaen-12-yl]-2-[1-(isopropylsulfonyl)piperidin-4-yl]acetamide trifluoroacetate]	–	–	–	–	–	IC50 [1, 7]: 3.7 nM; ALK % of inhibition at a concentration of 500 nM or 1 mM [2, 8]: 31%; IC50 [3, 9]: 7.3 nM; IC50 [4, 10]: 17 nM; IC50 (TYK2): 13 nM
O=C(Nc1ccc2cc1CCc1cccc(c1)Nc1ncc(Cl)c(n1)N2)C1CCN(C(=O)c2ccco2)CC1 [Example A32, N-[6-Chloro-2,4,8,22-tetraazatetracyclo[14.3.1.1(3,7).1(9,13)]docosa-1(20), 3(22),4,6,9(21),10,12,16,18-nonaen-12-yl]-1-(2-furoyl)piperidine-4-carboxamide trifluoroacetate]	–	–	–	–	–	IC50 [1, 7]: 29 nM; ALK % of inhibition at a concentration of 500 nM or 1 mM [2, 8]: 30%; IC50 [3, 9]: 30 nM; IC50 [4, 10]: 35 nM; IC50 (TYK2): 66 nM
Clc1cnc2nc1Nc1cccc(c1)CNCc1cccc(c1)N2 [Example D73, 6-Chloro-2,4,8,15,23-pentaazatetracyclo[15.3.1.1(3,7).1(9,13)]tricosa-1(21),3(23),4,6,9(22),10,12,17,19-nonaene bis(trifluoroacetate)]	–	–	–	–	–	IC50 ([1]; Table D1): 106 nM; IC50 ([2]; Table D1, 90 μM ATP): 1330 nM; IC50 ([3]; Table D1): 83 nM; IC50 ([4]; Table D1): 67 nM; IC50 (TYK2; Table D1): 191 nM
COc1cccc(C(=O)Nc2ccc3cc2CCc2cccc(c2)Nc2ncc(Cl)c(n2)N3)c1 [Example B66, N-[6-Chloro-2,4,8,22-tetraazatetracyclo[14.3.1.1(3,7).1(9,13)]docosa-1(20), 3(22),4,6,9(21),10,12,16,18-nonaen-12-yl]-3-methoxybenzamide trifluoroacetate]	1.6	3	13	4.5	–	IC50 [2, 5]: 310 nM
CCOc1ccccc1NC(=O)Nc1ccc2cc1CCc1cccc(c1)Nc1ncc(Cl)c(n1)N2 [Example B106, N-[6-Chloro-2,4,8,22-tetraazatetracyclo[14.3.1.1(3,7).1(9,13)]docosa-1(20), 3(22),4,6,9(21),10,12,16,18-nonaen-12-yl]-N′-(2-ethoxyphenyl)urea trifluoroacetate]	9.6	4.3	90	18	5.7	–
CC(C)S(=O)(=O)N1CCC(CC(=O)Nc2ccc3cc2CCc2cncc(c2)Nc2ncc(Cl)c(n2)N3)CC1 [Example A97, N-[6-Chloro-2,4,8,18,22-pentaazatetracyclo[14.3.1.1(3,7).1(9,13)]docosa-1(20),3(22),4,6,9(21),10,12,16,18-nonaen-12-yl]-2-[1-(isopropylsulfonyl)piperidin-4-yl]acetamide bis(trifluoroacetate)]	–	–	–	–	–	IC50 [1, 7]: 7.5 nM; ALK % of inhibition at a concentration of 500 nM or 1 mM [2, 8]: 31%; IC50 [3, 9]: 3.9 nM; IC50 [4, 10]: 34 nM; IC50 (TYK2): 11 nM
O=C(CC1CCN(c2ccnc(F)c2)CC1)Nc1ccc2cc1CCc1cncc(c1)Nc1ncc(Cl)c(n1)N2 [Example A244, N-[6-Chloro-2,4,8,18,22-pentaazatetracyclo[14.3.1.1(3,7).1(9,13)]docosa-1(20),3(22),4,6,9(21),10,12,16,18-nonaen-12-yl]-2-[1-(2-fluoropyridin-4-yl)piperidin-4-yl]acetamide tris(trifluoroacetate)]	–	–	–	–	–	IC50 [1, 7]: 171 nM; ALK % of inhibition at a concentration of 500 nM or 1 mM [2, 8]: 66%; IC50 [3, 9]: 30 nM; IC50 [4, 10]: > 400 nM; IC50 (TYK2): 170 nM
O=C(CC1CCN(S(=O)(=O)c2cccnc2)CC1)Nc1ccc2cc1CCc1cccc(c1)Nc1ncc(Cl)c(n1)N2 [Example A212, N-[6-Chloro-2,4,8,22-tetraazatetracyclo[14.3.1.1(3,7).1(9,13)]docosa-1(20),3(22),4,6,9(21),10,12,16,18-nonaen-12-yl]-2-[1-(pyridin-3-ylsulfonyl)piperidin-4-yl]acetamide bis(trifluoroacetate)]	–	–	–	–	–	IC50 [1, 7]: 8.6 nM; ALK % of inhibition at a concentration of 500 nM or 1 mM [2, 8]: 45%; IC50 [3, 9]: 1.3 nM; IC50 [4, 10]: > 200 nM; IC50 (TYK2): 85 nM

Continued, in another order:

IC50 ([1]; Table B1) [nM]	IC50 ([3]; Table B1) [nM]	IC50 ([4]; Table B1) [nM]	IC50 (TYK2; Table B1) [nM]	ALK % of inhibition at a concentration of 500 nM or 1 mM [2, 6] [%]	SMILES	also measured
37	53	4.2	14	44	O=C(Nc1nnn[nH]1)Nc1ccc2cc1CCc1cccc(c1)Nc1ncc(Cl)c(n1)N2 [Example B251, N-[6-Chloro-2,4,8,22-tetraazatetracyclo[14.3.1.1(3,7).1(9,13)]docosa-1(20),3(22),4,6,9(21),10,12,16,18-nonaen-12-yl]-N′-1H-tetrazol-5-ylurea trifluoroacetate]	–
15	7.9	110	32	16	Cc1ccc(Cl)cc1NC(=O)Nc1ccc2cc1CCc1cccc(c1)Nc1ncc(Cl)c(n1)N2 [Example B123, N-(5-Chloro-2-methylphenyl)-N′-[6-chloro-2,4,8,22-tetraazatetracyclo[14.3.1.1(3,7).1(9,13)]docosa-1(20),3(22),4,6,9(21),10,12,16,18-nonaen-12-yl]urea trifluoroacetate]	–
17	82	118	85	–	O=C(Nc1ccccc1)c1ccc2cc1CCc1cccc(c1)Nc1ncc(Cl)c(n1)N2 [Example B200, 6-Chloro-N-phenyl-2,4,8,22-tetraazatetracyclo[14.3.1.1(3,7).1(9,13)]docosa-1(20),3(22),4,6,9(21),10,12,16,18-nonaene-12-carboxamide trifluoroacetate]	IC50 [2, 5]: 4400 nM
> 400	172	> 400	> 400	–	CN(Cc1ccc2cc1CCc1cncc(c1)Nc1ncc(Cl)c(n1)N2)CC1CCNCC1 [Example B339, 1-[6-Chloro-2,4,8,18,22-pentaazatetracyclo[14.3.1.1(3,7).1(9,13)]docosa-1(20),3(22),4,6,9(21),10,12,16,18-nonaen-12-yl]-N-methyl-N-(piperidin-4-ylmethyl)methanamine Tetrahydrochloride]	ALK % of inhibition at a concentration of 500 nM or 1 mM ([2]; percentage inhibition of the example compound at a concentration of 500 nM or 1 mM (not specified which)): 41%
3.9	0.62	46	4	12	CC(C)(C)OC(=O)NCCNC(=O)Nc1ccc2cc1CCc1cccc(c1)Nc1ncc(Cl)c(n1)N2 [Example B185, tert-Butyl {2-[({[6-chloro-2,4,8,22-tetraazatetracyclo[14.3.1.1(3,7).1(9,13)]docosa-1(20),3(22),4,6,9(21),10,12,16,18-nonaen-12-yl]amino}carbonyl)amino]ethyl}carbamate]	–
177	70	236	226	3.7	O=C(Nc1ccc2cc1CCc1cccc(c1)Nc1ncc(Cl)c(n1)N2)NC1CCNCC1 [Example B181, N-[6-Chloro-2,4,8,22-tetraazatetracyclo[14.3.1.1(3,7).1(9,13)]docosa-1(20),3(22),4,6,9(21),10,12,16,18-nonaen-12-yl]-N′-piperidin-4-ylurea dihydrochloride]	–
78	17	20	8.5	41	O=C(Nc1nccs1)Nc1ccc2cc1CCc1cccc(c1)Nc1ncc(Cl)c(n1)N2 [Example B245, N-[6-Chloro-2,4,8,22-tetraazatetracyclo[14.3.1.1(3,7).1(9,13)]docosa-1(20),3(22),4,6,9(21),10,12,16,18-nonaen-12-yl]-N′-1,3-thiazol-2-ylurea trifluoroacetate]	–
